From ChEMBL document CHEMBL1833934, “Discovery and optimization of 1-(4-(pyridin-2-yl)benzyl)imidazolidine-2,4-dione derivatives as a novel class of selective cannabinoid CB2 receptor agonists” (J Med Chem, 2011)

Key:
[1] = Lipophilicity, log D of the compound; type: physicochemical; settings: octanol/water
[2] = Dissociation constant, pKa of the compound; type: physicochemical
[3] = Volume of distribution at steady state in Wistar BRL rat plasma at 1 mg/kg, iv and 5 mg/kg, po; type: ADME, organism-based; settings: read-out: Vdss
[4] = Oral bioavailability in Wistar BRL rat at 5 mg/kg; type: ADME, organism-based; settings: in vivo
[5] = Cmax in Wistar BRL rat plasma at 5 mg/kg, po; type: ADME, organism-based; set-up: dose 5 mg/kg, route oral
Rattus norvegicus = assay: Unbound Cmax in Wistar BRL rat plasma at 5 mg/kg, po; type: ADME, organism-based; set-up: dose 5 mg/kg, route oral; settings: in vivo
in vivo [6] = settings: Wistar BRL, rat, brain, po, 20 mg/kg
in vivo [7] = settings: Wistar BRL, rat, cerebrospinal fluid, po, 20 mg/kg
[8] = Apparent permeability across human Caco2 cell membrane at 20 uM after 1 hr by LC-MS/MS analysis; settings: Caco-2

Structure (SMILES)	logD [1]	pKa [2]	further results
O=C1CN(Cc2ccc(-c3ccc(F)c(CN4CCCCC4)n3)cc2)C(=O)N1CC1CC1	2.8	8.5	
CC(C)CN1C(=O)CN(Cc2ccc(-c3ccc(F)c(CN4CCCC(F)C4)n3)cc2)C1=O (centres undefined)	4.1	7.2	
CN1C(=O)CN(Cc2ccc(-c3cccc(CN4CCCCC4)n3)cc2)C1=O	1.3	8.7	
O=C1CN(Cc2ccc(-c3cccc(CN4CCCCC4)n3)cc2)C(=O)N1C1CC1	1.6	9	
CCN1C(=O)CN(Cc2ccc(-c3cccc(CC4CCCCC4)n3)cc2)C1=O	5.6		
O=C1CN(Cc2ccc(-c3cccc(CN4CCCCC4)n3)cc2)C(=O)N1C1CCC1	2.7		
CC(C)CN1C(=O)CN(Cc2ccc(-c3ccc(F)c(CN4CCS(=O)(=O)CC4)n3)cc2)C1=O	3	3	
CC(C)CN1C(=O)CN(Cc2ccc(-c3cccc(CN4CCCC(F)(F)C4)n3)cc2)C1=O	4.5	5.3	
CCN1C(=O)CN(Cc2ccc(-c3cccc(CN4CCCCC4)n3)cc2)C1=O	1.7	8.8	
CC(C)N1C(=O)CN(Cc2ccc(-c3cccc(CN4CCCCC4)n3)cc2)C1=O	2.2		
CC(C)CN1C(=O)CN(Cc2ccc(-c3ccc(F)c(CN4CCCC(C)C4)n3)cc2)C1=O (centres undefined)	3.9	8.4	
O=C1CN(Cc2ccc(-c3cccc(CN4CCCCC4)n3)cc2)C(=O)N1CC1CC1	2.5	8.9	
O=C1CN(Cc2ccc(-c3cccc(CN4CCCCC4)n3)cc2)C(=O)N1CC(F)(F)F	1.9		
CC(C)CN1C(=O)CN(Cc2ccc(-c3cccc(CN4CCS(=O)(=O)CC4)n3)cc2)C1=O	3	3.7	
CC(C)CN1C(=O)CN(Cc2ccc(-c3cccc(CN4CCCC(C)C4)n3)cc2)C1=O (centres undefined)	3.4	8.7	
O=C1CN(Cc2ccc(-c3ccc(F)c(CN4CCS(=O)(=O)CC4)n3)cc2)C(=O)N1C1CC1	1	2.8	Vd [3]: 0.94 L/kg; bioavailability [4]: 100%; Cmax [5]: 3800 nM; fCmax (Rattus norvegicus): 1.7 µM; Kp at 4 h (in vivo [6]): 0.05; Kp at 4 h (in vivo [7]): 0.14; Papp at 1 h, 20 µM [8]: 17.3 ×10⁻⁶ cm/s
CCCN1C(=O)CN(Cc2ccc(-c3cccc(CN4CCCCC4)n3)cc2)C1=O	2.2	8.8	
O=C1CN(Cc2ccc(-c3cccc(CN4CCCCC4)n3)cc2)C(=O)N1CC(F)F	1.6	8.9	
CC(C)CN1C(=O)CN(Cc2ccc(-c3cccc(CN4CCCCC4)n3)cc2)C1=O	2.8	8.9	Vd [3]: 5.4 L/kg; bioavailability [4]: 4%; Cmax [5]: 20 nM; fCmax (Rattus norvegicus): 0.006 µM; Papp at 1 h, 20 µM [8]: 21 ×10⁻⁶ cm/s
CCN1C(=O)CN(Cc2ccc(-c3ccc(F)c(CN4CCCCC4)n3)cc2)C1=O	2.1	8.5	
O=C1CN(Cc2ccc(-c3ccc(F)c(CN4CCCCC4)n3)cc2)C(=O)N1C1CC1	2	8.6	
O=C1CN(Cc2ccc(-c3ccc(F)c(CN4CCCCC4)n3)cc2)C(=O)N1CC(F)F	1.9	9	
CC(C)CN1C(=O)CN(Cc2ccc(-c3ccc(F)c(CN4CCOCC4)n3)cc2)C1=O	3.4	6	
O=C1CN(Cc2ccc(-c3ccc(F)c(CN4CCCCC4)n3)cc2)C(=O)N1CC1CCC1	3.5	8.6	
CCCN1C(=O)CN(Cc2ccc(-c3ccc(F)c(CN4CCCCC4)n3)cc2)C1=O	2.5	8.5	
CC(C)CN1C(=O)CN(Cc2ccc(-c3cccc(CN4CCCC(F)C4)n3)cc2)C1=O (centres undefined)	3.7	7.4	
CC(C)CN1C(=O)CN(Cc2ccc(-c3ccc(F)c(CN4CCCC(F)(F)C4)n3)cc2)C1=O	4.7	5	
CC(C)CN1C(=O)CN(Cc2ccc(-c3ccc(F)c(CN4CCCCC4)n3)cc2)C1=O	3.4	8.6	
